The results in this text go back to ChEMBL document CHEMBL3400142, “Synthesis of nitro(benzo)thiazole acetamides and in vitro antiprotozoal effect against amitochondriate parasites Giardia intestinalis and Trichomonas vaginalis” (Bioorg Med Chem, 2015).

One series deals with Trichomonas vaginalis. Briefly: Ratio of metronidazole IC50 to compound IC50 for Trichomonas vaginalis GT3 compound treated for 48 hrs followed by incubation for 48 hrs in compound-free medium by cell counting.
Conditions: not given
It counts as functional.
As to `Nc1nc2ccc([N+](=O)[O-])cc2s1`, the “Ratio IC50” value was found to be 13.

Test system in the next series: not listed separately
Briefly: Cytotoxicity against African green monkey Vero cells after 48 hrs by MTT assay. It counts as cell-based. As to conditions: chlorocebus sabaeus. A general note: Formazan colour is commonly taken as a measure of viable cells.
As a reminder, the CC50 is the concentration giving 50% cytotoxicity. `CCN(CC)CC(=O)Nc1nc2ccc([N+](=O)[O-])cc2s1` returned a CC50 at 48 h of more than 1000 µM.

`Cc1ncc([N+](=O)[O-])n1CCO` [METRONIDAZOLE] returned a CC50 at 48 h of 367 µM.

The compound `CCN(CC)CC(=O)Nc1ncc([N+](=O)[O-])s1` displayed a CC50 at 48 h of more than 1000 µM.

In turn, `O=C(CN1CCCCC1)Nc1ncc([N+](=O)[O-])s1` displayed a CC50 at 48 h of more than 1000 µM.

Compound `O=C(CN1CCOCC1)Nc1nc2ccc([N+](=O)[O-])cc2s1` showed a CC50 at 48 h of more than 1000 µM.

Take `O=C(CN1CCCC1)Nc1nc2ccc([N+](=O)[O-])cc2s1`: the CC50 at 48 h was more than 1000 µM.

Consider `O=C(CN1CCCCC1)Nc1nc2ccc([N+](=O)[O-])cc2s1`, for which the CC50 at 48 h was more than 1000 µM.

The compound `O=C(CN1CCOCC1)Nc1ncc([N+](=O)[O-])s1` came in with a CC50 at 48 h of more than 1000 µM.

In turn, `CC(=O)Nc1ncc([N+](=O)[O-])s1` [NITHIAMIDE] yielded a CC50 at 48 h of more than 1000 µM.

The compound `O=C(Nc1ncc([N+](=O)[O-])s1)c1ccccc1O` [TIZOXANIDE] showed a CC50 at 48 h of 388 µM.

As for `O=C(CN1CCCC1)Nc1ncc([N+](=O)[O-])s1`, the CC50 at 48 h is more than 1000 µM.

For the compound `Nc1nc2ccc([N+](=O)[O-])cc2s1`, it took 607 µM to reach half-maximal cytotoxicity (CC50 at 48 h).

Test system in another series: not listed separately
Description: Selectivity index, ratio of CC50 for african green monkey Vero cells to IC50 for Giardia intestinalis IMSS:0696:1. It counts as functional.
Conditions: not given
As for `CCN(CC)CC(=O)Nc1ncc([N+](=O)[O-])s1`, the “Ratio CC50/IC50” value was determined as 8196.

Regarding `O=C(CN1CCOCC1)Nc1ncc([N+](=O)[O-])s1`, the “Ratio CC50/IC50” value came to 6622.

A further series relates to Trichomonas vaginalis. Description: Trichomonicidal activity against Trichomonas vaginalis GT3 compound treated for 48 hrs followed by incubation for 48 hrs in compound-free medium by cell counting. It counts as functional, organism-based. Particulars: GT3, 48 h.
`CCN(CC)CC(=O)Nc1nc2ccc([N+](=O)[O-])cc2s1` registered an IC50 of 3.21 µM.

As to `CCN(CC)CC(=O)Nc1ncc([N+](=O)[O-])s1`, the IC50 is 2.25 µM.

`O=C(CN1CCCCC1)Nc1ncc([N+](=O)[O-])s1` gave an IC50 of 2.04 µM.

`O=C(CN1CCOCC1)Nc1nc2ccc([N+](=O)[O-])cc2s1` returned an IC50 of 0.331 µM.

`O=C(CN1CCCC1)Nc1nc2ccc([N+](=O)[O-])cc2s1` displayed an IC50 of 0.221 µM.

For the compound `O=C(CN1CCCCC1)Nc1nc2ccc([N+](=O)[O-])cc2s1`, the IC50 turned out to be 3.43 µM.

On to `O=C(CN1CCOCC1)Nc1ncc([N+](=O)[O-])s1`, for which the IC50 amounted to 0.305 µM.

Compound `O=C(CN1CCCC1)Nc1ncc([N+](=O)[O-])s1` registered an IC50 of 6.1 µM.

As for `Nc1nc2ccc([N+](=O)[O-])cc2s1`, the IC50 was 0.625 µM.

The subject of the next series is Giardia intestinalis. Briefly: Ratio of metronidazole IC50 to compound IC50 for Giardia intestinalis IMSS:0696:1 compound treated for 48 hrs followed by incubation for 48 hrs in compound-free medium by cell counting. It counts as functional, Giardia duodenalis.
Conditions: not given
In the case of `CCN(CC)CC(=O)Nc1ncc([N+](=O)[O-])s1`, the “Ratio IC50” value turned out to be 44.

Regarding `O=C(CN1CCOCC1)Nc1ncc([N+](=O)[O-])s1`, the “Ratio IC50” value is 35.

For `O=C(CN1CCCC1)Nc1ncc([N+](=O)[O-])s1`, the “Ratio IC50” value is listed as 24.

For another series, the system named is Giardia duodenalis. Briefly: Inhibition of Giardia intestinalis fructose 1,6-bisphosphate aldolase at 400 nM after 2 hrs by spectrophotometry.
Conditions: not given
Broadly, the inhibition is the drop in the measured response relative to a control, in per cent. `CCN(CC)CC(=O)Nc1nc2ccc([N+](=O)[O-])cc2s1` yielded an inhibition of -0%.

Consider `CCN(CC)CC(=O)Nc1ncc([N+](=O)[O-])s1`, for which the inhibition was found to be 66%.

Regarding `O=C(CN1CCCCC1)Nc1ncc([N+](=O)[O-])s1`, the inhibition was determined as 5%.

`O=C(CN1CCOCC1)Nc1nc2ccc([N+](=O)[O-])cc2s1` gave an inhibition of 35%.

`O=C(CN1CCCC1)Nc1nc2ccc([N+](=O)[O-])cc2s1` yielded an inhibition of 10%.

`O=C(CN1CCCCC1)Nc1nc2ccc([N+](=O)[O-])cc2s1`: the inhibition was -0%.

The compound `Nc1ncc([N+](=O)[O-])s1` had an inhibition of -0%.

For the compound `O=C(CN1CCOCC1)Nc1ncc([N+](=O)[O-])s1`, the inhibition stood at 54%.

Regarding `CC(=O)Nc1ncc([N+](=O)[O-])s1` [NITHIAMIDE], the inhibition was -0%.

`CC(=O)Oc1ccccc1C(=O)Nc1ncc([N+](=O)[O-])s1` displayed an inhibition of 31%.

In the case of `O=C(Nc1ncc([N+](=O)[O-])s1)c1ccccc1O` [TIZOXANIDE], the inhibition came to 25%.

For `O=C(CN1CCCC1)Nc1ncc([N+](=O)[O-])s1`, the inhibition worked out at 21%.

`Nc1nc2ccc([N+](=O)[O-])cc2s1` displayed an inhibition of -0%.

The subject of the next series is Giardia intestinalis. Briefly: Giardicidal activity against Giardia intestinalis IMSS:0696:1 compound treated for 48 hrs followed by incubation for 48 hrs in compound-free medium by cell counting. As to conditions: Giardia duodenalis, IMSS:0696:1, 48 h; read-out: IC50. In kind it is functional, organism-based.
`CCN(CC)CC(=O)Nc1nc2ccc([N+](=O)[O-])cc2s1`: the IC50 came out at 2.03 µM.

As to `CCN(CC)CC(=O)Nc1ncc([N+](=O)[O-])s1`, the IC50 came out at 0.122 µM.

Regarding `O=C(CN1CCCCC1)Nc1ncc([N+](=O)[O-])s1`, the IC50 is 0.219 µM.

On to `O=C(CN1CCOCC1)Nc1nc2ccc([N+](=O)[O-])cc2s1`, for which the IC50 worked out at 3.35 µM.

Turning to `O=C(CN1CCCC1)Nc1nc2ccc([N+](=O)[O-])cc2s1`, the IC50 turned out to be 0.298 µM.

Take `O=C(CN1CCCCC1)Nc1nc2ccc([N+](=O)[O-])cc2s1`: the IC50 worked out at 2.31 µM.

On to `O=C(CN1CCOCC1)Nc1ncc([N+](=O)[O-])s1`, for which the IC50 was determined as 0.151 µM.

On to `O=C(CN1CCCC1)Nc1ncc([N+](=O)[O-])s1`, for which the IC50 amounted to 0.178 µM.

As for `Nc1nc2ccc([N+](=O)[O-])cc2s1`, the IC50 was determined as 24.4 µM.

The series is the same for the next values; noted with them: Giardia duodenalis, IMSS:0696:1, 48 h; read-out: pIC50 (converted).
On to `CCN(CC)CC(=O)Nc1ncc([N+](=O)[O-])s1`, for which the IC50 is 0.123 µM.

For `O=C(CN1CCOCC1)Nc1ncc([N+](=O)[O-])s1`, the IC50 was 0.151 µM.

A further series concerns Giardia intestinalis. Briefly: Ratio of nitazoxanide IC50 to compound IC50 for Giardia intestinalis IMSS:0696:1 compound treated for 48 hrs followed by incubation for 48 hrs in compound-free medium by cell counting. In kind it is functional, Giardia duodenalis.
Conditions: not given
Take `CCN(CC)CC(=O)Nc1ncc([N+](=O)[O-])s1`: the “Ratio IC50” value amounted to 10.

Turning to `O=C(CN1CCOCC1)Nc1ncc([N+](=O)[O-])s1`, the “Ratio IC50” value is recorded as 8.

On to `O=C(CN1CCCC1)Nc1ncc([N+](=O)[O-])s1`, for which the “Ratio IC50” value was determined as 5.

The test system of the next series is Giardia duodenalis. Description: Ratio of nitazoxanide IC50 to compound IC50 for Giardia intestinalis fructose 1,6-bisphosphate aldolase at 400 nM after 2 hrs by spectrophotometry.
Conditions: not given
Turning to `CCN(CC)CC(=O)Nc1ncc([N+](=O)[O-])s1`, the Ratio IC50 came to 2.

Turning to `O=C(CN1CCOCC1)Nc1ncc([N+](=O)[O-])s1`, the Ratio IC50 is 2.

In the next series the test system is Trichomonas vaginalis. Briefly: Ratio of nitazoxanide IC50 to compound IC50 for Trichomonas vaginalis GT3 compound treated for 48 hrs followed by incubation for 48 hrs in compound-free medium by cell counting. It counts as functional.
Conditions: not given
With `Nc1nc2ccc([N+](=O)[O-])cc2s1`, the “Ratio IC50” value was found to be 3.
